According to PMC6931042 (Bioorganic chemistry, 2018):
Several values for one entry are separate records, joined by “and”; a condition that tells them apart may be missing. Equal values may be shown once. Read-outs that look alike come from different tables or passages of the source.

What was measured:
[1] = test system: MCF7; assay: NCI in vitro five dose anticancer assay; format: cell-based, human
[2] = test system: HCT-116; assay: NCI in vitro five dose anticancer assay; format: cell-based, human
[3] = test system: COLO 205; assay: NCI in vitro five dose anticancer assay; format: cell-based, human
[4] = test system: p-PI3K, p-Akt, p-mTOR and p-GSK-3β in A549 cells; assay: Western blotting, PI3K/Akt/mTOR pathway; format: cell-based, human; details: 1, 3, or 6 μM, western blot, dose-dependent
[5] = test system: BT-549; assay: NCI in vitro five dose anticancer assay; format: cell-based, human
[6] = target: PI3K-α (Homo sapiens, UniProt P42336); assay: PI3K biochemical assay
[7] = test system: U251; assay: NCI in vitro five dose anticancer assay; format: cell-based, human
[8] = test system: T-47D; assay: NCI in vitro five dose anticancer assay; format: cell-based, human
[9] = test system: A549 and K-562 cells; assay: Cytotoxicity IC50 stated jointly for the 2 cell lines; format: cell-based, human; details: read-out: IC50 against the 2 cell lines tested
[10] = test system: HL-60(TB); assay: NCI in vitro five dose anticancer assay; format: cell-based, human
[11] = test system: K-562 cells; assay: Apoptosis, annexin V-FITC/PI flow cytometry; format: cell-based, human; details: 24 h
[12] = test system: chronic myeloid leukemia K-562; assay: Trypan blue exclusion cytotoxicity assay
[13] = test system: NCI-H23; assay: NCI in vitro five dose anticancer assay; format: cell-based, human
[14] = test system: ACHN; assay: NCI in vitro five dose anticancer assay; format: cell-based, human
[15] = test system: human lung adenocarcinoma A549; assay: Trypan blue exclusion cytotoxicity assay
[16] = test system: OVCAR-4; assay: NCI in vitro five dose anticancer assay; format: cell-based, human
[17] = test system: LOX IMVI; assay: NCI in vitro five dose anticancer assay; format: cell-based, human
[18] = test system: PC-3; assay: NCI in vitro five dose anticancer assay; format: cell-based, human
[19] = test system: HCT-15; assay: NCI in vitro five dose anticancer assay; format: cell-based, human
[20] = test system: A549 cells; assay: Cell cycle analysis by flow cytometry; format: cell-based, human; details: 24 h
[21] = test system: SK-MEL-5; assay: NCI in vitro five dose anticancer assay; format: cell-based, human
[22] = target: PI3K-β (Homo sapiens, UniProt P42338); assay: PI3K biochemical assay
[23] = test system: K-562; assay: NCI in vitro five dose anticancer assay; format: cell-based, human
[24] = test system: M14; assay: NCI in vitro five dose anticancer assay; format: cell-based, human
[25] = test system: EKVX; assay: NCI in vitro five dose anticancer assay; format: cell-based, human
[26] = target: class I PI3K enzymes; assay: PI3K biochemical assay, all isoforms stated jointly; details: read-out: IC50s against the different PI3K isoforms; range over PI3K-α, β, γ, δ
[27] = test system: MDA-MB-468; assay: NCI in vitro five dose anticancer assay; format: cell-based, human
[28] = test system: NCI-H322M; assay: NCI in vitro five dose anticancer assay; format: cell-based, human
[29] = test system: p53, p21, cyclin B1 and Cdc2 in K-562 cells; assay: Western blotting, p53 and cell cycle regulators; format: cell-based, human; details: 1, 3 and 6 μM, western blot; for expression of Cdc2 / expression of cyclin B1 / expression of p21: dose dependent
[30] = test system: IGROV1; assay: NCI in vitro five dose anticancer assay; format: cell-based, human
[31] = test system: MALME-3M; assay: NCI in vitro five dose anticancer assay; format: cell-based, human
[32] = test system: HCC-2998; assay: NCI in vitro five dose anticancer assay; format: cell-based, human
[33] = test system: 786–0; assay: NCI in vitro five dose anticancer assay; format: cell-based, human
[34] = test system: NCI-H226; assay: NCI in vitro five dose anticancer assay; format: cell-based, human
[35] = test system: SNB-75; assay: NCI in vitro five dose anticancer assay; format: cell-based, human
[36] = test system: SK-MEL-28; assay: NCI in vitro five dose anticancer assay; format: cell-based, human
[37] = test system: SNB-19; assay: NCI in vitro five dose anticancer assay; format: cell-based, human
[38] = test system: NCI 60 cell lines; assay: NCI single dose; format: cell-based, human; details: 48 h
[39] = test system: A549 cells; assay: Apoptosis, annexin V-FITC/PI flow cytometry; format: cell-based, human; details: for percentage of apoptotic cells: 48 h; for proportion of apoptotic cells compared to control: 1, 3, or 6 μM, 24 h, data not shown
[40] = test system: SW-620; assay: NCI in vitro five dose anticancer assay; format: cell-based, human
[41] = test system: NCI-H522; assay: NCI in vitro five dose anticancer assay; format: cell-based, human
[42] = target: PI3K-γ (Homo sapiens, UniProt P48736); assay: PI3K biochemical assay
[43] = test system: UO-31; assay: NCI in vitro five dose anticancer assay; format: cell-based, human
[44] = test system: SK-MEL-2; assay: NCI in vitro five dose anticancer assay; format: cell-based, human
[45] = read-out: K-562 (IC50 μM), trypan blue exclusion, 24 h, mean ± SD
[46] = Non-small cell lung cancer, five dose assay
[47] = read-out: A549 (IC50 μM), trypan blue exclusion, 24 h, mean ± SD

PI3K-γ, sequence (P48736 whole entry): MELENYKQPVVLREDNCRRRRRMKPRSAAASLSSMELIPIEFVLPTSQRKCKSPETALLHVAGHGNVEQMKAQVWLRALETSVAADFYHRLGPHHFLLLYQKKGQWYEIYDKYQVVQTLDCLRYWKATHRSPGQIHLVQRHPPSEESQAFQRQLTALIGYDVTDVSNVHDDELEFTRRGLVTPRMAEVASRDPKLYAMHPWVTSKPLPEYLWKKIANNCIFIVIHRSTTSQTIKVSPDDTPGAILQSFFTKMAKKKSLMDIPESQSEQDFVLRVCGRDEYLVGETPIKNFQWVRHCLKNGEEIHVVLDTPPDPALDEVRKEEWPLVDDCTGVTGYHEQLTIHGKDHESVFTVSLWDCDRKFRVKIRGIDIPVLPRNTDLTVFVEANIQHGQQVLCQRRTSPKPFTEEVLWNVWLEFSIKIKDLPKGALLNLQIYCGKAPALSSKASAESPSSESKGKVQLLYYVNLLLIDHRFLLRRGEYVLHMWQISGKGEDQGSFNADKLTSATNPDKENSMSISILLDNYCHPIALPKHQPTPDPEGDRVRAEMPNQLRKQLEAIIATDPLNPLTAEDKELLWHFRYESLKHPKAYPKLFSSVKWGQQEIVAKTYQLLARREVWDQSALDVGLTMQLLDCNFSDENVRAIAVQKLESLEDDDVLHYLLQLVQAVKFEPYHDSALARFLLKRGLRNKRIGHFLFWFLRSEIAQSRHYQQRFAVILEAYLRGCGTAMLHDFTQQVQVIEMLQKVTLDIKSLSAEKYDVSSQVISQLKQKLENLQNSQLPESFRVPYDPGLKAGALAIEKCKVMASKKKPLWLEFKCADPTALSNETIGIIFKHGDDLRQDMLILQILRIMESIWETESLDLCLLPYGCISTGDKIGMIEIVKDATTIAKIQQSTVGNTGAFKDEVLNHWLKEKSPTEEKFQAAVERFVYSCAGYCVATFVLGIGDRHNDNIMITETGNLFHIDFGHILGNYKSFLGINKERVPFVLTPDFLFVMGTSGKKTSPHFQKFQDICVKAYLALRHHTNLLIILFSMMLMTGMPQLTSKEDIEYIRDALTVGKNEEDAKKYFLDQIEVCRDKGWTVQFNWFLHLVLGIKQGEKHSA
PI3K-β, sequence (P42338 whole entry): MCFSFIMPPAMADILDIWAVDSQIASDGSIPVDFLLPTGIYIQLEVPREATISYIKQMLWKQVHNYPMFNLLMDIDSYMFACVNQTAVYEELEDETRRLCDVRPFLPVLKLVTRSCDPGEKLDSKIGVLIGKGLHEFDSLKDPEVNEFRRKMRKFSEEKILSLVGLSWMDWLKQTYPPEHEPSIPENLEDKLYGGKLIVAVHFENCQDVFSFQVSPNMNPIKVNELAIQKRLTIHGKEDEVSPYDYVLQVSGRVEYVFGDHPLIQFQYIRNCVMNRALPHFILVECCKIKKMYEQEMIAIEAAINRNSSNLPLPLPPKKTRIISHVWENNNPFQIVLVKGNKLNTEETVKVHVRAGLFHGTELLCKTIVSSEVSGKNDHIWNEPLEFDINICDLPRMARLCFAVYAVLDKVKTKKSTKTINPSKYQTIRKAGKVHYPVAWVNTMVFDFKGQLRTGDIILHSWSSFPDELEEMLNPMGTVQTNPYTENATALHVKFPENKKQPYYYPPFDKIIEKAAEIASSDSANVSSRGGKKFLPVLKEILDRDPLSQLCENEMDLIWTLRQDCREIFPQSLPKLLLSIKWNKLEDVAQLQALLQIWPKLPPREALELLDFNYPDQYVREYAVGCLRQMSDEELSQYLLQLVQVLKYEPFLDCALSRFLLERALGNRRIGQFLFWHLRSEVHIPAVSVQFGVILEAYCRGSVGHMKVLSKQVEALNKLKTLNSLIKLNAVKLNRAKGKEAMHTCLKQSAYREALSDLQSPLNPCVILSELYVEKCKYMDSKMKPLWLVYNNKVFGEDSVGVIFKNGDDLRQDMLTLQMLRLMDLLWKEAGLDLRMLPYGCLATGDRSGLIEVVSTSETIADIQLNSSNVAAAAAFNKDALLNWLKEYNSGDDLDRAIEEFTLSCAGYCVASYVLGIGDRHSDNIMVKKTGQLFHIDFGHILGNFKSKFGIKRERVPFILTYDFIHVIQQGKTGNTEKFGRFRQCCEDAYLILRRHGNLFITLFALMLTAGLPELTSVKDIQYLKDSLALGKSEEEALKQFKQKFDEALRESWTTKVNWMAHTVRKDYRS
PI3K-β, sequence (P27986 whole entry partner): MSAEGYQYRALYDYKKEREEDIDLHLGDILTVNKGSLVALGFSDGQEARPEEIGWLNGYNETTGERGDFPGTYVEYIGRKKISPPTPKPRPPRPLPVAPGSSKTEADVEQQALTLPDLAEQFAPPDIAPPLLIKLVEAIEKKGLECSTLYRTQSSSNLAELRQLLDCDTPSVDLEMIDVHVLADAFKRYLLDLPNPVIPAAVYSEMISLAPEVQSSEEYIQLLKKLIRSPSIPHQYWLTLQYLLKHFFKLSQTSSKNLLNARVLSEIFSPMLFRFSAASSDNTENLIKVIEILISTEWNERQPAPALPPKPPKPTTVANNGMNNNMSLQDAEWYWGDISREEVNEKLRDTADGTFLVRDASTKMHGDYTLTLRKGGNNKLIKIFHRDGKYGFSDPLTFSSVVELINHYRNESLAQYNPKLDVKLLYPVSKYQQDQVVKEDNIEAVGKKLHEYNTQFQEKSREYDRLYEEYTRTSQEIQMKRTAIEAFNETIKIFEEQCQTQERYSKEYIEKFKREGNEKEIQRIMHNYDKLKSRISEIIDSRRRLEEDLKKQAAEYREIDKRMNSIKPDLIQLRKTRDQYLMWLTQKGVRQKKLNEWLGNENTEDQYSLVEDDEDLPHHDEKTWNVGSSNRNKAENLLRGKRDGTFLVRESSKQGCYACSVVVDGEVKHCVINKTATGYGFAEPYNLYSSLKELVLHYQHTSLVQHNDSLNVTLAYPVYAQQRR
PI3K-α, sequence (P42336 whole entry): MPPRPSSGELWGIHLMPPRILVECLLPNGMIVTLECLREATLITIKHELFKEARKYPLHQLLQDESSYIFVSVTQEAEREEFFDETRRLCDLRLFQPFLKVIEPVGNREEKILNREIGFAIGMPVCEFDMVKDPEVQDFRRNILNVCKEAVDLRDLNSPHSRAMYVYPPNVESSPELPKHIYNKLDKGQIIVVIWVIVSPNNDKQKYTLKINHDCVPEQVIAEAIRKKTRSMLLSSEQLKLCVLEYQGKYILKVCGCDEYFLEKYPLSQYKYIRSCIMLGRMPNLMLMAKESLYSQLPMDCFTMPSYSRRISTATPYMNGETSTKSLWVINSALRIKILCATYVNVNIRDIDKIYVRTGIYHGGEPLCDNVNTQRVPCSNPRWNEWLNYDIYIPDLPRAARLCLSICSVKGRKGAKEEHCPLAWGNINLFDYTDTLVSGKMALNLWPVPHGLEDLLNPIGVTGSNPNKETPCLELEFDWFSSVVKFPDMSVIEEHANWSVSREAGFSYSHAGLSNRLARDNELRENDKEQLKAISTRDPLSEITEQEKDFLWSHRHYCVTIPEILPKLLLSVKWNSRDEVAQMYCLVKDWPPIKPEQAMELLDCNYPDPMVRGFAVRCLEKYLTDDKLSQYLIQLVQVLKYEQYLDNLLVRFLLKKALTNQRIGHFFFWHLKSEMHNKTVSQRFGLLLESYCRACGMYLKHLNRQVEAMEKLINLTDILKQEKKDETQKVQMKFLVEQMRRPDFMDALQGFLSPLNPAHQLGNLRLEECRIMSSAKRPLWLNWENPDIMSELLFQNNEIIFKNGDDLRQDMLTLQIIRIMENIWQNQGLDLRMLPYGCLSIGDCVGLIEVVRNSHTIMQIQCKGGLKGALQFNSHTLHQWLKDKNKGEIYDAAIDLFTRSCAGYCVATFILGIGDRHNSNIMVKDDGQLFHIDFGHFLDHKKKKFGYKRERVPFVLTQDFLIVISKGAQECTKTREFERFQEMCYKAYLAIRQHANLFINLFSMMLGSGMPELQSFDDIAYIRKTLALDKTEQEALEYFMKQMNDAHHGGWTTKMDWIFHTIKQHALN
PI3K-α, sequence (P27986 whole entry partner): as the sequence (P27986 whole entry partner) above

SMILES: COc1ccc(-c2cc(C(=O)NN=C(/C=C\c3ccc(Cl)cc3)c3ccc(N)cc3)c3ccccc3n2)cc1 [Compound 9i, N’-((Z)-1-(4-Aminophenyl)-3-(4-chlorophenyl)allylidene)-2-(4-methoxphenyl)quinoline-4-carbohydrazide]
- GI50 ([1]; Breast cancer, five dose assay): 0.442 µM
- GI50 ([2]; Colon cancer, five dose assay): 1.41 µM
- GI50 ([3]; Colon cancer, five dose assay): 1.99 µM
- levels of phosphorylated Akt (at Ser473) [4]: decreases
- levels of phosphorylated GSK-3β [4]: decreases
- levels of phosphorylated PI3K (at Tyr458) [4]: decreases
- levels of phosphorylated mTOR (at Ser2448) [4]: decreases
- GI50 ([5]; Breast cancer, five dose assay): 2.04 µM
- IC50 ([6]; read-out: IC50 (nM) PI3K-α, ADP-Glo, ATP 10 μM): 248 nM
- GI50 ([7]; CNS cancer, U251, five dose assay): 2.18 µM
- GI50 ([8]; Breast cancer, T-47D, five dose assay): 2.7 µM
- IC50 ([9]; range over A549 and K-562): 1.91 to 5.29 µM
- GI50 ([10]; Leukemia, HL-60(TB), five dose assay): 2.54 µM
- percentage of apoptotic cells ([11]; 1 μM): 25.79%
- percentage of apoptotic cells ([11]; 3 μM): 46.2%
- percentage of apoptotic cells ([11]; 6 μM): 46.6%
- IC50 [12, 45]: 1.9 µM and 1.91 µM
- GI50 [13, 46]: 3.14 µM
- GI50 ([14]; Renal cancer, five dose assay): 1.47 µM
- IC50 [15, 47]: 4 µM and 3.9 µM and 3.91 µM
- GI50 ([16]; Ovarian cancer, five dose assay): 1.82 µM
- GI50 ([17]; Melanoma, five dose assay): 1.56 µM
- GI50 ([18]; Prostate cancer, five dose assay): 2.03 µM
- GI50 ([19]; Colon cancer, five dose assay): 1.03 µM
- percentage of cells in the G2/M phase ([20]; 1 μM): 11%
- percentage of cells in the G2/M phase ([20]; 3 μM): 61.2%
- percentage of cells in the G2/M phase ([20]; 6 μM): 76.2%
- GI50 ([21]; Melanoma, five dose assay): 0.701 µM
- IC50 ([22]; read-out: IC50 (nM) PI3K-β, ADP-Glo, ATP 30 μM): 296 nM
- GI50 ([23]; Leukemia, K-562, five dose assay): 1.05 µM
- GI50 ([24]; Melanoma, five dose assay): 1.16 µM
- GI50 [25, 46]: 3.78 µM
- IC50 [26]: 0.052 to 0.473 µM
- GI50 ([27]; Breast cancer, five dose assay): 2.95 µM
- GI50 [28, 46]: 6 µM
- expression of non-functional p53 [29]: no effect
- expression of Cdc2 [29]: attenuated
- expression of cyclin B1 [29]: attenuated
- expression of p21 [29]: significantly induced
- GI50 ([30]; Ovarian cancer, IGROV1, five dose assay): 4.98 µM
- GI50 ([31]; Melanoma, MALME-3M, five dose assay): > 100 µM
- GI50 ([32]; Colon cancer, HCC-2998, five dose assay): 3.4 µM
- GI50 ([33]; Renal cancer, 786–0, five dose assay): 1.84 µM
- GI50 [34, 46]: 7.54 µM
- GI50 ([35]; CNS cancer, five dose assay): 0.371 µM
- GI50 ([36]; Melanoma, five dose assay): 3.78 µM
- GI50 ([37]; CNS cancer, five dose assay): 5.54 µM
- mean growth inhibition ([38]; 10 μM single dose, mean over NCI 60 cell lines): 73.03%
- percentage of apoptotic cells ([39]; 1 μM): 13.21%
- percentage of apoptotic cells ([39]; 3 μM): 22.73%
- percentage of apoptotic cells ([39]; 6 μM): 35.9%
- proportion of apoptotic cells compared to control [39]: did not result in changes
- GI50 ([40]; Colon cancer, five dose assay): 1.24 µM
- GI50 [41, 46]: 0.307 µM
- IC50 ([42]; read-out: IC50 (nM) PI3K-γ, ADP-Glo, ATP 10 μM): 52 nM
- GI50 ([43]; Renal cancer, five dose assay): 1.55 µM
- GI50 ([44]; Melanoma, five dose assay): 2.03 µM

SMILES: Cc1ccc(-c2cc(C(=O)NN=C(/C=C\c3ccc(Cl)cc3)c3ccc(N)cc3)c3ccccc3n2)cc1 [Compound 9j, N’-((Z)-1-(4-Aminophenyl)-3-(4-chlorophenyl)allylidene)-2-(4-methylphenyl)quinoline-4-carbohydrazide]
- GI50 ([1]; Homo sapiens): 2.53 µM
- GI50 ([2]; Homo sapiens): 3.18 µM
- GI50 ([3]; Homo sapiens): 2.8 µM
- levels of phosphorylated Akt (at Ser473) [4]: decreases
- levels of phosphorylated GSK-3β [4]: decreases
- levels of phosphorylated PI3K (at Tyr458) [4]: decreases
- levels of phosphorylated mTOR (at Ser2448) [4]: decreases
- GI50 ([5]; Homo sapiens): 3.92 µM
- IC50 [6]: 271 nM
- GI50 ([7]; Homo sapiens, U-251): 4.51 µM
- GI50 ([8]; Homo sapiens, T47D): 2.73 µM
- IC50 ([9]; Homo sapiens): 1.91 to 5.29 µM
- GI50 ([10]; Homo sapiens, HL-60): 3.49 µM
- percentage of apoptotic cells ([11]; 1 μM): 16.65%
- percentage of apoptotic cells ([11]; 3 μM): 39.4%
- percentage of apoptotic cells ([11]; 6 μM): 47.1%
- IC50 ([12]; Homo sapiens, K562, 24 h, read-out: K-562 (IC50 μM), trypan blue exclusion, mean ± SD): 2.7 µM
- IC50 [12, 45]: 2.67 ± 0.27 µM
- GI50 ([13]; Homo sapiens): 5.02 µM
- GI50 ([14]; Homo sapiens): 4.19 µM
- IC50 ([15]; Homo sapiens, A549, 24 h, read-out: A549 (IC50 μM), trypan blue exclusion, mean ± SD): 5 µM
- IC50 [15, 47]: 5.29 ± 0.19 µM
- GI50 ([16]; Homo sapiens): 4.71 µM
- GI50 ([17]; Homo sapiens): 4 µM
- GI50 ([18]; Homo sapiens): 3.4 µM
- GI50 ([19]; Homo sapiens): 3.33 µM
- percentage of cells in the G2/M phase ([20]; 1 μM): 6.22%
- percentage of cells in the G2/M phase ([20]; 3 μM): 15.8%
- percentage of cells in the G2/M phase ([20]; 6 μM): 59.6%
- GI50 ([21]; Homo sapiens): 2.5 µM
- IC50 [22]: 360 nM
- GI50 ([23]; Homo sapiens, K562): 3.09 µM
- GI50 ([24]; Homo sapiens): 2.54 µM
- GI50 ([25]; Homo sapiens): 3.99 µM
- IC50 [26]: 0.052 to 0.473 µM
- GI50 ([27]; Homo sapiens): 4.91 µM
- GI50 ([28]; Homo sapiens): 4.73 µM
- expression of non-functional p53 [29]: no effect
- expression of Cdc2 [29]: attenuated
- expression of cyclin B1 [29]: attenuated
- expression of p21 [29]: significantly induced
- GI50 ([30]; Homo sapiens, IGROV-1): 6.48 µM
- GI50 ([31]; Homo sapiens, Malme-3M): > 100 µM
- GI50 ([32]; Homo sapiens, HCC 2998): 4.28 µM
- GI50 ([33]; Homo sapiens, 786-0): 4.22 µM
- GI50 ([34]; Homo sapiens): 6.47 µM
- GI50 ([35]; Homo sapiens): 1.41 µM
- GI50 ([36]; Homo sapiens): 6.23 µM
- GI50 ([37]; Homo sapiens): 6.51 µM
- inhibition at 10 µM ([38]; Homo sapiens, 60 cell, read-out: mean growth inhibition): 74%
- percentage of apoptotic cells ([39]; 1 μM): 14.68%
- percentage of apoptotic cells ([39]; 3 μM): 14.07%
- percentage of apoptotic cells ([39]; 6 μM): 28.1%
- proportion of apoptotic cells compared to control [39]: did not result in changes
- GI50 ([40]; Homo sapiens): 4.24 µM
- GI50 ([41]; Homo sapiens): 0.622 µM
- IC50 [42]: 197 nM
- GI50 ([43]; Homo sapiens): 2.2 µM
- GI50 ([44]; Homo sapiens): 3.81 µM
